# Test results from the supplement of paper PMC10307832.
# What was measured:
# Experiment in all cases: relative viability (nuclei count vs DMSO), 5 days (fraction); higher = more cells survive
# RU-SKI 43 + Tozasertib = compound: CC[C@@H](C)CNCC(=O)N1CCC2=C([C@@H]1COC3=CC=CC(=C3)C)C=CS2 [RU-SKI 43] + Cc1cc(Nc2cc(N3CCN(C)CC3)nc(Sc3ccc(NC(=O)C4CC4)cc3)n2)n[nH]1 [Tozasertib] (partner 0.1 µM)
# Summary of the method: (§1)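 Nuclei were stained with Hoechst during a one-step fixation (final 0.05% Triton X-100, 1% formaldehyde, 1 ug/ml Hoechst) carried out 5 days after dosing, then counted on 4× images. The cells, lung cancer lines in 1536-well plates, had been dosed by pin tool the day after seeding with one drug alone or a fixed anchor-drug dose plus five library-drug doses (not always all listed) in √10 steps. Relative viability is the nuclei count in treated wells divided by that in vehicle wells, and each value is the median of duplicate plates.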
# MK-8033 + Pictilisib = compound: Cn1cc(-c2cnc3ccc4ccc(CS(=O)(=O)NCc5ccccn5)cc4c(=O)c3c2)cn1 [MK-8033] + CS(=O)(=O)N1CCN(Cc2cc3nc(-c4cccc5[nH]ncc45)nc(N4CCOCC4)c3s2)CC1 [Pictilisib] (partner 1 µM)
# Summary of the method: as §1
# MK-8033 + Olaparib = compound: Cn1cc(-c2cnc3ccc4ccc(CS(=O)(=O)NCc5ccccn5)cc4c(=O)c3c2)cn1 [MK-8033] + O=C(c1cc(Cc2n[nH]c(=O)c3ccccc23)ccc1F)N1CCN(C(=O)C2CC2)CC1 [Olaparib] (partner 8 µM)
# Summary of the method: as §1
# MK-8033 + Bortezomib = compound: Cn1cc(-c2cnc3ccc4ccc(CS(=O)(=O)NCc5ccccn5)cc4c(=O)c3c2)cn1 [MK-8033] + CC(C)C[C@H](NC(=O)[C@H](Cc1ccccc1)NC(=O)c1cnccn1)B(O)O [Bortezomib] (partner 0.002 µM)
# Summary of the method: as §1
Cell Line,relative viability (RU-SKI 43 + Tozasertib; first compound 0.1 µM),relative viability (RU-SKI 43 + Tozasertib; first compound 0.3162 µM),relative viability (RU-SKI 43 + Tozasertib; first compound 1 µM),relative viability (RU-SKI 43 + Tozasertib; first compound 3.162 µM),relative viability (RU-SKI 43 + Tozasertib; first compound 10 µM),relative viability (MK-8033 + Pictilisib; first compound 0.02 µM),relative viability (MK-8033 + Pictilisib; first compound 0.06325 µM),relative viability (MK-8033 + Pictilisib; first compound 0.2 µM),relative viability (MK-8033 + Pictilisib; first compound 0.6325 µM),relative viability (MK-8033 + Pictilisib; first compound 2 µM),relative viability (MK-8033 + Olaparib; first compound 0.02 µM),relative viability (MK-8033 + Olaparib; first compound 0.06325 µM),relative viability (MK-8033 + Olaparib; first compound 0.2 µM),relative viability (MK-8033 + Olaparib; first compound 0.6325 µM),relative viability (MK-8033 + Olaparib; first compound 2 µM),relative viability (MK-8033 + Bortezomib; first compound 0.02 µM),relative viability (MK-8033 + Bortezomib; first compound 0.06325 µM),relative viability (MK-8033 + Bortezomib; first compound 0.2 µM),relative viability (MK-8033 + Bortezomib; first compound 0.6325 µM),relative viability (MK-8033 + Bortezomib; first compound 2 µM)
HOP-62,0.359,0.371,0.479,0.344,0.287,0.626,0.593,0.587,0.694,0.646,0.407,0.51,0.417,0.399,0.471,0.932,0.85,0.333,0.555,0.897
NCI-H520,0.456,0.422,0.428,0.401,0.408,0.28,0.221,0.295,0.283,0.323,0.306,0.326,0.357,0.307,0.315,0.471,0.309,0.495,0.565,0.446
NCI-H1734,0.238,0.217,0.276,0.258,0.267,0.48,0.37,0.466,0.469,0.45,0.644,0.553,0.546,0.615,0.648,1.14,0.814,0.871,0.898,0.916
NCI-H1650,0.381,0.374,0.38,0.427,0.303,0.601,0.469,0.646,0.527,0.544,0.808,0.646,0.688,0.797,0.713,0.198,0.181,0.197,0.234,0.218
NCI-H1975,0.755,0.852,0.854,0.712,0.574,0.302,0.266,0.269,0.307,0.315,0.721,0.757,0.789,0.77,0.78,0.386,0.328,0.365,0.429,0.367
NCI-H1437,0.362,0.34,0.443,0.379,0.38,0.56,0.409,0.384,0.449,0.482,0.632,0.619,0.596,0.633,0.598,0.469,0.444,0.512,0.489,0.419
A-427,0.226,0.165,0.23,0.21,0.196,0.676,0.7,0.677,0.734,0.644,0.778,0.722,0.623,0.818,0.676,0.98,1.11,1.02,0.968,0.954
NCI-H2405,0.73,0.705,0.713,0.701,0.629,0.502,0.445,0.404,0.434,0.593,0.832,0.881,0.868,0.913,0.876,1,0.961,0.932,0.771,1.03
LC-2-ad,0.424,0.442,0.459,0.424,0.405,0.43,0.461,0.453,0.572,0.486,0.701,0.678,0.673,0.702,0.727,1.12,0.996,0.885,0.996,0.933
NCI-H322M,0.516,0.502,0.47,0.518,0.394,0.511,0.438,0.496,0.464,0.523,0.725,0.762,0.733,0.782,0.739,1.29,1.2,1.11,1.14,1.18
HCC-44,0.962,–,0.903,1.02,0.87,0.623,0.409,0.542,0.69,0.738,1,1.06,0.931,1.01,0.975,0.9,0.838,0.803,0.907,0.833
HCC-827,0.435,0.523,0.592,0.426,0.368,1.05,0.605,0.902,1.06,1.04,0.653,–,0.644,0.561,0.488,1.06,1.01,1.05,1.08,1.04
SW 1573,0.209,0.22,0.204,0.123,0.196,0.55,0.414,0.462,0.463,0.42,0.537,0.479,0.418,0.567,0.393,1.08,–,0.902,0.988,1.05
NCI-H23,0.394,0.393,0.347,0.455,0.297,0.377,0.397,0.378,0.561,0.384,0.295,0.307,0.221,–,0.332,0.959,0.712,0.796,1.03,1.01
EMC-BAC-2,0.295,0.235,0.262,0.296,0.249,0.59,0.412,0.478,0.502,0.483,0.501,0.477,0.473,0.49,0.479,1,0.947,0.979,1.06,1.06
EPLC-272H,0.213,0.226,0.445,0.242,0.207,0.3,–,0.298,0.303,0.294,0.817,0.716,0.792,0.614,0.689,0.932,–,0.826,1.09,0.91
